Read-outs that look alike come from different tables or passages of the source.
Columns and labels:
Assay type in all cases: in vivo
[1] = test system: Pyricularia oryzae (rice blast); test: whole plant or invertebrate; settings: for pest or weed control at 400 ppm: Pyricularia oryzae, foliar, read-out: RICE BLAST, Test 1, foliar spray on rice, disease control rating at 400 ppm / 100 ppm; for RICE BLAST: disease control rating, foliar spray on rice, 400 ppm (+++ at 100 ppm)
[2] = test system: Puccinia recondita tritici (leaf rust); test: Test 1 greenhouse foliar spray screen, leaf rust on wheat; settings: for pest or weed control at 400 ppm: Puccinia recondita, foliar, Test 1, foliar spray on wheat, disease control rating at 400 ppm / 100 ppm; for LEAF RUST: disease control rating, foliar spray on wheat, 400 ppm (+++ at 100 ppm)
corn rootworm = test: Mite/insect screen, CRW; settings: percent mortality, read-out: CRW RESULTS %
How it was run: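 Following dissolution in equal parts acetone and alcohol with 23 g/L and 13 g/L emulsifier blends and dilution with water, test solutions were scored for percent mortality at the end of standard exposures.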

[3] = test system: melon aphids (Aphis gossypii Glover); test: Mite/insect screen, MA; settings: Aphis gossypii, percent mortality, read-out: MA RESULTS %
How it was run: (§1)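 Foliar spray to runoff (10 psi), 1 h drying; aqueous dilutions from acetone/alcohol emulsifier stock. Mortality (%) after standard exposure.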

[4] = test system: southern armyworm (Spodopetra eridania Cramer); test: Mite/insect screen, SAW; settings: Spodoptera eridania, percent mortality, read-out: SAW RESULTS %
How it was run: as §1

[5] = test system: Pseudoperonospora cubensis (downy mildew); test: Test 1 greenhouse foliar spray screen, downy mildew on squash; settings: for pest or weed control at 400 ppm: Pseudoperonospora cubensis, foliar, Test 1, foliar spray on squash, disease control rating at 400 ppm / 100 ppm, read-out: DOWN MDEW; for DOWN MDEW: disease control rating, foliar spray on squash, 400 ppm (+++ at 100 ppm)
[6] = test system: Botrytis cinerea (gray mold); test: Test 1 greenhouse foliar spray screen, gray mold on grape berries; settings: for pest or weed control at 400 ppm: Botrytis cinerea, foliar, Test 1, spray on grape berries, disease control rating at 400 ppm / 100 ppm; for GRAY MOLD: disease control rating, spray on grape berries, 400 ppm (+++ at 100 ppm)
[7] = test system: Erysiphe graminis tritici (powdery mildew); test: Test 1 greenhouse foliar spray screen, powdery mildew on wheat; settings: for pest or weed control at 400 ppm: Blumeria graminis, foliar, Test 1, foliar spray on wheat, disease control rating at 400 ppm / 100 ppm, read-out: POWD MDEW; for POWD MDEW: disease control rating, foliar spray on wheat, 400 ppm (+++ at 100 ppm)
[8] = test system: Twospotted spider mites (Tetranychus urticae Koch); test: Mite/insect screen, SM; settings: Tetranychus urticae, percent mortality, read-out: SM RESULTS %
How it was run: as §1

[9] = foliar, rate 200 ppm, foliar spray on squash
[10] = foliar, rate 400 ppm, foliar spray on squash

Structure (SMILES) | pest or weed control at 400 ppm [1] | pest or weed control at 400 ppm [2] | mortality at 12 ppm (corn rootworm; CRW rate 12.00 ppm) | mortality at 24 ppm (corn rootworm; CRW rate 24.00 ppm) | mortality at 200 ppm [3, 9] | mortality at 400 ppm [3, 10] | mortality at 200 ppm [4, 9] | mortality at 400 ppm [4, 10] | pest or weed control at 400 ppm [5] | pest or weed control at 400 ppm [6] | pest or weed control at 400 ppm [7] | mortality at 200 ppm [8, 9] | mortality at 400 ppm [8, 10] | RICE BLAST [1] | LEAF RUST [2] | mortality at 24 ppm (corn rootworm; CRW RATE 24.00 PPM) | mortality at 400 ppm ([3]; SAW, SM & MA RATE 400 PPM) | DOWN MDEW [5] | GRAY MOLD [6] | POWD MDEW [7] | other results
Fc1cccc2c(OCCCCCCOc3ccccc3)ccnc12 [Example 287, 8-fluoro-4-[(6-phenoxyhexyl)oxy]quinoline] | 0 to 19% | 20 to 89% | 0% | 0% | 80% | 0% | 0% | 0% | 90 to 100% | 0 to 19% | 0 to 19% | 0% | 0% | – | – | – | – | – | – | – | –
Fc1ccc(CCOc2ccnc3c(F)cccc23)c(F)c1 [Example 275, 8-fluoro-4-[2-(2,4-difluorophenyl)ethoxy]quinoline] | 90 to 100% | 90 to 100% | 0% | 0% | 90% | 100% | 0% | 0% | 90 to 100% | 0 to 19% | 90 to 100% | 0% | 60% | – | – | – | – | – | – | – | –
Fc1cccc2c(NCCCCc3ccccc3)ccnc12 [Example 268, 8-fluoro-N-(4-phenylbutyl)-4-quinolinamine] | 90 to 100% | 90 to 100% | 0% | 0% | 0% | 0% | 0% | 0% | 90 to 100% | 0 to 19% | 20 to 89% | 0% | 80% | – | – | – | – | – | – | – | –
COc1ccc(CCN(C(C)=O)c2ccnc3cc(Cl)ccc23)cc1 [Example 125, N-(7-chloro-4-quinolinyl)-N-[2-(4-methoxyphenyl)ethyl]acetamide] | – | – | – | – | – | – | – | – | – | – | – | – | – | - (0-19% control at 400 ppm) | - (0-19% control at 400 ppm) | 0% | 0% | - (0-19% control at 400 ppm) | - (0-19% control at 400 ppm) | + (20-89% control at 400 ppm) | mortality at 12 ppm (corn rootworm; CRW RATE 12.00 PPM): 0%; mortality at 200 ppm ([3]; SAW, SM & MA RATE 200 PPM): 0%; mortality at 200 ppm ([4]; SAW, SM & MA RATE 200 PPM): 0%; mortality at 400 ppm ([4]; SAW, SM & MA RATE 400 PPM): 0%; mortality at 200 ppm ([8]; SAW, SM & MA RATE 200 PPM): 0%; mortality at 400 ppm ([8]; SAW, SM & MA RATE 400 PPM): 0%
Fc1cccc2c(OC3CCCCC3c3ccccc3)ccnc12 (stereo not shown) [Example 295, 8-fluoro-4-(2-phenylcyclohexyloxy)quinoline] | 20 to 89% | 20 to 89% | 0% | 0% | 0% | 0% | 0% | 0% | 90 to 100% | 0 to 19% | 20 to 89% | 0% | 0% | – | – | – | – | – | – | – | –
OC(CNc1ccnc2c(F)cccc12)c1ccc2ccccc2c1 (stereo not drawn) [Example 157, α-[[(8-fluoro-4-quinolinyl)amino]methyl]-2-naphthalenemethanol] | – | – | – | – | – | – | – | – | – | – | – | – | – | ++ (90-100% control at 400 ppm) | ++ (90-100% control at 400 ppm) | 0% | 0% | +++ (90-100% control at 100 ppm) | - (0-19% control at 400 ppm) | - (0-19% control at 400 ppm) | mortality at 400 ppm ([4]; SAW, SM & MA RATE 400 PPM): 100%; mortality at 400 ppm ([8]; SAW, SM & MA RATE 400 PPM): 80%
Fc1cc(F)c2nccc(NCCc3ccc(-c4ccccc4)cc3)c2c1 [Example 40, 6,8-difluoro-N-(2-[1,1'-biphenyl]-4-ylethyl)-4-quinolinamine] | – | – | – | – | – | – | – | – | – | – | – | – | – | ++ (90-100% control at 400 ppm) | +++ (90-100% control at 100 ppm) | 100% | 0% | + (20-89% control at 400 ppm) | - (0-19% control at 400 ppm) | - (0-19% control at 400 ppm) | mortality at 12 ppm (corn rootworm; CRW RATE 12.00 PPM): 0%; mortality at 200 ppm ([3]; SAW, SM & MA RATE 200 PPM): 0%; mortality at 200 ppm ([4]; SAW, SM & MA RATE 200 PPM): 0%; mortality at 400 ppm ([4]; SAW, SM & MA RATE 400 PPM): 80%; mortality at 200 ppm ([8]; SAW, SM & MA RATE 200 PPM): 0%; mortality at 400 ppm ([8]; SAW, SM & MA RATE 400 PPM): 0%
Fc1cccc2c(OCCc3cccc(Sc4ccccc4)c3)ccnc12 [Example 218, 8-fluoro-4-[2-(3-(phenylthio)phenyl)ethoxy]quinoline] | 90 to 100% | 90 to 100% | – | 0% | – | 0% | – | 100% | 90 to 100% | 0 to 19% | 90 to 100% | – | 0% | – | – | – | – | – | – | – | –
Fc1cccc2c(OCCCC(Br)CBr)ccnc12 (stereo not shown) [Example 284, 4-[(4,5-dibromopentyl)oxy]-8-fluoroquinoline] | 90 to 100% | 90 to 100% | 0% | 0% | 0% | 0% | 0% | 0% | 20 to 89% | 0 to 19% | 0 to 19% | 0% | 0% | – | – | – | – | – | – | – | –
FC(F)(F)c1ccc2c(OCCc3ccccc3)ccnc2c1 [Example 239, 4-(2-phenylethoxy)-7-(trifluoromethyl)quinoline] | 90 to 100% | 90 to 100% | 0% | 0% | 0% | 0% | 0% | 0% | 90 to 100% | 0 to 19% | 90 to 100% | 0% | 0% | – | – | – | – | – | – | – | –
Fc1cccc2c(NCCC3CCCCC3)ccnc12 [Example 177, N-(2-cyclohexylethyl)-8-fluoro-4-quinolinamine] | – | – | 0% | 100% | 0% | 0% | 0% | 0% | – | – | – | 0% | 0% | +++ (90-100% control at 100 ppm) | +++ (90-100% control at 100 ppm) | – | – | +++ (90-100% control at 100 ppm) | - (0-19% control at 400 ppm) | ++ (90-100% control at 400 ppm) | –
Clc1ccc(CCNc2ccnc3cc(Cl)ccc23)cc1 [Example 37, 7-chloro-N-[2-(4-chlorophenyl)ethyl]-4-quinolinamine] | – | – | – | – | – | – | – | – | – | – | – | – | – | - (0-19% control at 400 ppm) | + (20-89% control at 400 ppm) | 0% | 0% | + (20-89% control at 400 ppm) | - (0-19% control at 400 ppm) | + (20-89% control at 400 ppm) | mortality at 12 ppm (corn rootworm; CRW RATE 12.00 PPM): 0%; mortality at 200 ppm ([3]; SAW, SM & MA RATE 200 PPM): 0%; mortality at 200 ppm ([4]; SAW, SM & MA RATE 200 PPM): 0%; mortality at 400 ppm ([4]; SAW, SM & MA RATE 400 PPM): 0%; mortality at 200 ppm ([8]; SAW, SM & MA RATE 200 PPM): 0%; mortality at 400 ppm ([8]; SAW, SM & MA RATE 400 PPM): 0%

— EP0326331B1, “Substituted quinolines and cinnolines” (Dow AgroSciences LLC, priority 1988, dated 1989)
